System: recombinant guanylate cyclase reporter cell line
Test: sGC-activating activity in the CHO reporter cell in vitro
Format: cell-based
Conditions: read-out: MEC (minimum effective concentration)
Procedure: B-2. Action at a Recombinant Guanylate Cyclase Reporter Cell Line
The cellular action of the compounds according to the invention is determined at a recombinant guanylate cyclase reporter cell line, as described in F. Wunder et al., Anal. Biochem. 32, 104-112 (2005).

SMILES	minimal effective concentration [nM]
CC(C)(C)c1ccc(COc2ccccc2CCN(CCc2ccc(C(=O)O)cc2)C2CCCc3nc(C(=O)O)ccc32)cc1 (racemic) [Example 12, rac-5-{(2-{2-[(4-tert-Butylbenzyl)oxy]phenyl}ethyl)[2-(4-carboxyphenyl)ethyl]amino}-5,6,7,8-tetrahydroquinoline-2-carboxylic acid]	0.3
CC(C)(C)c1ccc(COc2ccccc2CCN(CCCCC(=O)O)C2CCCc3nc(C(=O)O)ccc32)cc1 (single isomer, unassigned) [Example 3]	100
O=C(O)CCCCN(CCc1ccccc1OCc1ccc(-c2ccc(C(F)(F)F)cc2)cc1Cl)C1CCCc2nc(C(=O)O)ccc21 (single isomer, unassigned) [Example 7]	0.3
O=C(O)CCCCN(CCc1ccccc1OCc1ccc(-c2ccc(C(F)(F)F)cc2)cc1Cl)C1CCCc2nc(C(=O)O)ccc21 (single isomer, unassigned) [Example 8]	3
O=C(O)CCCCN(CCc1ccccc1OCCCCCc1ccccc1)C1CCCc2nc(C(=O)O)ccc21 (single isomer, unassigned) [Example 9]	10
O=C(O)CCCCN(CCc1ccccc1OCCCCCc1ccccc1)C1CCCc2nc(C(=O)O)ccc21 (single isomer, unassigned) [Example 10]	300
O=C(O)CCCCN(CCc1ccccc1OCc1ccc(-c2ccc(C(F)(F)F)cc2)cc1)C1CCCc2nc(C(=O)O)ccc21 (single isomer, unassigned) [Example 17]	1000
Cc1ccc2oc(-c3ccc(COc4ccccc4CCN(CCc4ccc(C(=O)O)cc4)C4CCCc5nc(C(=O)O)ccc54)cc3)nc2c1 (single isomer, unassigned) [Example 21]	100
Cc1ccc2oc(-c3ccc(COc4ccccc4CCN(CCc4ccc(C(=O)O)cc4)C4CCCc5nc(C(=O)O)ccc54)cc3)nc2c1 (single isomer, unassigned) [Example 22]	1
O=C(O)c1ccc(CCN(CCc2ccccc2OCc2ccc(-c3nc4cc(C(F)(F)F)ccc4o3)cc2)C2CCCc3nc(C(=O)O)ccc32)cc1 (single isomer, unassigned) [Example 24]	1
O=C(O)CCCCN(CCc1ccccc1OCc1ccc(-c2nc3cc(C(F)(F)F)ccc3o2)cc1)C1CCCc2nc(C(=O)O)ccc21 (single isomer, unassigned) [Example 25]	0.3
O=C(O)c1ccc(CCN(CCc2ccccc2OCc2ccc(-c3nc4ccccc4o3)cc2)C2CCCc3nc(C(=O)O)ccc32)cc1 (single isomer, unassigned) [Example 26]	1
O=C(O)c1ccc(CCN(CCc2ccccc2OCc2ccc(-c3nc4cc(OC(F)(F)F)ccc4o3)cc2)C2CCCc3nc(C(=O)O)ccc32)cc1 (single isomer, unassigned) [Example 29]	3
N#Cc1ccc2oc(-c3ccc(COc4ccccc4CCN(CCc4ccc(C(=O)O)cc4)C4CCCc5nc(C(=O)O)ccc54)cc3)nc2c1 (single isomer, unassigned) [Example 30]	1
N#Cc1ccc2oc(-c3ccc(COc4ccccc4CCN(CCCCC(=O)O)C4CCCc5nc(C(=O)O)ccc54)cc3)nc2c1 (single isomer, unassigned) [Example 31]	10
O=C(O)CCCCN(CCc1ccccc1OCc1ccc(-c2nc3cc(Cl)ccc3o2)cc1)C1CCCc2nc(C(=O)O)ccc21 (single isomer, unassigned) [Example 32]	0.3
O=C(O)c1ccc(CCN(CCc2cc(F)ccc2OCc2ccc(-c3ccc(C(F)(F)F)cc3)cc2Cl)C2CCCc3nc(C(=O)O)ccc32)cc1 (single isomer, unassigned) [Example 33]	10
O=C(O)c1ccc(CCN(CCc2cc(F)ccc2OCc2ccc(-c3ccc(C(F)(F)F)cc3)cc2Cl)C2CCCc3nc(C(=O)O)ccc32)cc1 (single isomer, unassigned) [Example 34]	1
O=C(O)c1ccc(CCN(CCc2cc(F)ccc2OCc2ccc(-c3nc4cc(Cl)ccc4o3)cc2)C2CCCc3nc(C(=O)O)ccc32)cc1 (single isomer, unassigned) [Example 35]	3
O=C(O)CCCCN(CCc1cc(F)ccc1OCc1ccc(-c2nc3cc(Cl)ccc3o2)cc1)C1CCCc2nc(C(=O)O)ccc21 (single isomer, unassigned) [Example 36]	30
O=C(O)CCCCN(CCc1cc(F)ccc1OCc1ccc(-c2nc3cc(Cl)ccc3o2)cc1)C1CCCc2nc(C(=O)O)ccc21 (single isomer, unassigned) [Example 37]	1
O=C(O)c1ccc(CCN(CCc2cc(F)ccc2OCc2ccc(CCc3ccc(F)cc3)cc2)C2CCCc3nc(C(=O)O)ccc32)cc1 (single isomer, unassigned) [Example 42]	3
O=C(O)c1ccc(CCN(CCc2ccccc2OCc2ccc(-c3nc4cc(Cl)ccc4o3)cc2)C2CCCc3nc(C(=O)O)ccc32)cc1 (single isomer, unassigned; enantiomer 1) [Example 19, 5-{[2-(4-Carboxyphenyl)ethyl][2-(2-{[4-(5-chloro-1,3-benzoxazol-2-yl)benzyl]oxy}phenyl)ethyl]-amino}-5,6,7,8-tetrahydroquinoline-2-carboxylic acid (Enantiomer 1)]	30
O=C(O)c1ccc(CCN(CCc2ccccc2OCc2ccc(-c3nc4cc(Cl)ccc4o3)cc2)C2CCCc3nc(C(=O)O)ccc32)cc1 (single isomer, unassigned; enantiomer 2) [Example 20, 5-{[2-(4-Carboxyphenyl)ethyl][2-(2-{[4-(5-chloro-1,3-benzoxazol-2-yl)benzyl]oxy}phenyl)ethyl]-amino}-5,6,7,8-tetrahydroquinoline-2-carboxylic acid (Enantiomer 2)]	3
O=C(O)c1ccc(CCN(CCc2ccccc2OCc2ccc(CCc3ccccc3)cc2)C2CCCc3nc(C(=O)O)ccc32)cc1 (single isomer, unassigned; enantiomer 2) [Example 38, 5-{[2-(4-Carboxyphenyl)ethyl][2-(2-{[4-(2-phenylethyl)benzyl]oxy}phenyl)ethyl]amino}-5,6,7,8-tetrahydroquinoline-2-carboxylic acid (Enantiomer 2)]	0.3
O=C(O)c1ccc(CCN(CCc2cc(F)ccc2OCc2ccc(CCc3ccc(F)cc3)cc2)C2CCCc3nc(C(=O)O)ccc32)cc1 (single isomer, unassigned; enantiomer 2) [Example 43, 5-([2-(4-Carboxyphenyl)ethyl]{2-[5-fluoro-2-({4-[2-(4-fluorophenyl)ethyl]benzyl}oxy)phenyl]-ethyl}amino)-5,6,7,8-tetrahydroquinoline-2-carboxylic acid (Enantiomer 2)]	0.3
CCC(=O)N1CCC(c2ccc(COc3ccccc3CCN(CCCCC(=O)O)C3CCCc4nc(C(=O)O)ccc43)cc2)CC1 (stereo not shown) [Example 5]	100
O=C(O)CCCCN(CCc1ccccc1OCc1ccc([C@H]2CC[C@H](C(F)(F)F)CC2)cc1)C1CCCc2nc(C(=O)O)ccc21 (stereo partly shown) [Example 11]	0.3
